Laboratory results reported in patent US12287322B2, “Composition for detecting hydrogen sulfide or measuring hydrogen sulfide concentration and composition comprising same as effective ingredient for diagnosing or imaging in vivo inflammation, tissues having hypoxic damage, or cancer” (SEOUL NATIONAL UNIVERSITY R&DB FOUNDATION, priority 2018, dated 2025).

Columns and labels:
[1] = test system: reperfused brain after middle cerebral artery occlusion; experiment: Autoradiography of brain reperfused after middle cerebral artery occlusion; format: in vivo, mouse; conditions: 2 hours occlusion, 12 hours recovery, 1 mCi tail vein, brain extracted after 1 hour, compared with TTC staining, FIG. 11
[2] = test system: inflamed tissue where hydrogen sulfide was generated (carrageenan hind paw); experiment: SPECT-CT imaging of carrageenan-inflamed tissue where hydrogen sulfide is produced; format: in vivo; conditions: mouse, 300 μCi tail vein 4 hours after 1% carrageenan, SPECT-CT after 1 hour, FIG. 10
Method: It has been reported that hydrogen sulfide was generated in the inflamed tissue induced by the administration of carrageenan (Li L, Bhatia M, Zhu Y Z, et al. FASEB J. (2005) 19:1196-1198; Bhatia M, Sidhapuriwala J, Moochhala S M, et al. Br J Pharmacol. (2005) 145:141-144.). Accordingly, the following experiment was performed to confirm whether the imaging of the inflamed tissue where hydrogen sulfide was generated was possible when the ^99mTc-alpha-hydroxy acid according to the present invention was administered.
30 μL of physiological saline containing 1% carrageenan was injected into the right hind paw of a mouse, and 30 μL of physiological saline was injected into the left hind paw of the mouse.

[3] = Reaction of ^99mTc-alpha-hydroxy acid with glutathione, insoluble substances by ITLC; conditions: 4 mM glutathione in 0.2 M sodium phosphate buffer pH 7.4, 37° C., 15 minutes
Method: (§1) Particularly, the ^99mTc-alpha-hydroxy acid prepared in Example 1 was diluted 5 times with physiological saline, and then 100 μL of each diluent was taken, to which 100 μL of each of 0.2 M sodium phosphate buffer (pH 7.4) containing 0.4 mM NaHS, 4 mM glutathione, 0.4 mM cysteine, 0.4 mM sodium sulfite, 0.4 mM sodium sulfate, 0.4 mM sodium thiosulfate, and 0.4 mM NONOate (NO generating reagent) was added, followed by reaction at 37° C. for 15 minutes. Then, ITLC was developed with physiological saline to determine the percentage of the radioactivity remaining at the origin.

[4] = Reaction of ^99mTc-alpha-hydroxy acid with cysteine, insoluble substances by ITLC; conditions: 0.4 mM cysteine in 0.2 M sodium phosphate buffer pH 7.4, 37° C., 15 minutes
Method: as §1

[5] = Reaction of ^99mTc-alpha-hydroxy acid with sodium sulfite, insoluble substances by ITLC; conditions: 0.4 mM sodium sulfite in 0.2 M sodium phosphate buffer pH 7.4, 37° C., 15 minutes
Method: as §1

[6] = Reaction of ^99mTc-alpha-hydroxy acid with sodium sulfate, insoluble substances by ITLC; conditions: 0.4 mM sodium sulfate in 0.2 M sodium phosphate buffer pH 7.4, 37° C., 15 minutes
Method: as §1

[7] = Reaction of ^99mTc-alpha-hydroxy acid with sodium thiosulfate, insoluble substances by ITLC; conditions: 0.4 mM sodium thiosulfate in 0.2 M sodium phosphate buffer pH 7.4, 37° C., 15 minutes
Method: as §1

[8] = Reaction of ^99mTc-alpha-hydroxy acid with NO (NONOate), insoluble substances by ITLC; conditions: 0.4 mM NONOate in 0.2 M sodium phosphate buffer pH 7.4, 37° C., 15 minutes
Method: as §1

[9] = ^99mTc-alpha-hydroxy acid in phosphate buffer alone, insoluble substances by ITLC; conditions: 0.2 M sodium phosphate buffer pH 7.4 alone, 37° C., 15 minutes
Method: as §1

[10] = Reaction of ^99mTc-alpha-hydroxy acid with NaHS, insoluble substances by ITLC; conditions: 0.4 mM NaHS in 0.2 M sodium phosphate buffer pH 7.4, 37° C., 15 minutes; radioactivity at origin, ITLC saline
Text: Then, ITLC was developed with physiological saline to determine the percentage of the radioactivity remaining at the origin.

hydrogen sulfide in paw = experiment: Hydrogen sulfide concentration in inflamed area (DMPD/FeCl3, absorbance 665 nm); format: in vivo; conditions: mouse paw, 4 hours after 30 μL 1% carrageenan, n=3
Method: In order to confirm that the concentration of hydrogen sulfide in the inflamed area was higher than the concentration of hydrogen sulfide in the normal area, it was measured as follows using a method described in the literature (A D Ang, A Konigstorfer, G I Giles, M Bhatia. Adv Biol Chem, 2012, 2:360-365). After 4 hours, the mouse was euthanized with carbon dioxide gas, and the ankle was cut and the weight was measured. 500 μL of 50 mM sodium carbonate buffer (pH 9) chilled with ice was added thereto and homogenized for 30 seconds gently, 1 minute 30 seconds moderately, and 30 seconds vigorously. After centrifugation at 1200×g for 5 minutes, the supernatant was obtained, to which 400 μL of a mixed solution of 350 μL of 1% zinc acetate and 50 μL of 1.5 M sodium hydroxide was added, followed by mixing well. After centrifugation at 1200×g for 5 minutes, the supernatant was discarded. To the precipitated pellet, 1 mL of distilled water saturated with nitrogen was added, which was mixed by vortexing for 1 minute. After centrifugation at 1200×g for 5 minutes, the supernatant was discarded. […] After reacting at room temperature for 15 minutes, absorbance was measured at 665 nm. A standard quantification curve was drawn with a standard sample measured by the same method, and then quantified.

## OC[C@H]1OC(O)[C@H]([18F])[C@@H](O)[C@@H]1O (stereo partly shown) [[^18F] FDG, reference compound]
[1]
  distribution of radioactivity in brain sections: almost overlapped with the red area stained by TTC

## O=C1[O][99Tc-]2(=[O])([O]C(=O)C(C(O)C(O)C(O)C(O)CO)[O]2)[O]C1C(O)C(O)C(O)C(O)CO (stereo not shown) [^99mTc-glucoheptonate]
[2]
  radioactivity of the inflamed area versus area administered with physiological saline: clearly higher

## O=C1[O][99Tc-]2(=[O])([O]C(=O)[C@@H]([C@@H](O)[C@H](O)[C@H](O)CO)[O]2)[O][C@@H]1[C@@H](O)[C@H](O)[C@H](O)CO [^99mTc-gluconate]
[3]
  percentage of insoluble substances produced after reaction with Glutathione: 12.0 ± 2.4%
[4]
  percentage of insoluble substances produced after reaction with Cysteine: 5.1 ± 0.6%
[5]
  percentage of insoluble substances produced after reaction with Sodium sulfite: 6.4 ± 0.7%
[6]
  percentage of insoluble substances produced after reaction with Sodium sulfate: 7.9 ± 1.5%
[7]
  percentage of insoluble substances produced after reaction with Thiosodium sulfate: 6.5 ± 1.0%
[8]
  percentage of insoluble substances produced after reaction with NO: 6.1 ± 1.0%
[9]
  percentage of insoluble substances produced in Buffer: 8.7 ± 1.8%
[2]
  radioactivity of the inflamed area versus area administered with physiological saline: clearly higher
[1]
  distribution of radioactivity in brain sections: ingested at the boundary area rather than completely dead brain tissues and the normal brain tissues

## ^99mTc-citrate
[10]
  percentage of insoluble substances produced after reaction with NaHS: 8.3±1.0%
[3]
  percentage of insoluble substances produced after reaction with Glutathione: 7.5 ± 1.7%
[4]
  percentage of insoluble substances produced after reaction with Cysteine: 2.1 ± 0.2%
[5]
  percentage of insoluble substances produced after reaction with Sodium sulfite: 7.8 ± 0.7%
[6]
  percentage of insoluble substances produced after reaction with Sodium sulfate: 8.0 ± 0.5%
[7]
  percentage of insoluble substances produced after reaction with Thiosodium sulfate: 5.5 ± 0.1%
[8]
  percentage of insoluble substances produced after reaction with NO: 5.6 ± 0.4%
[9]
  percentage of insoluble substances produced in Buffer: 4.0 ± 0.1%

## ^99mTc-glucarate
[10]
  percentage of insoluble substances produced after reaction with NaHS: 37.0±4.7%
[3]
  percentage of insoluble substances produced after reaction with Glutathione: 13.4 ± 2.7%
[4]
  percentage of insoluble substances produced after reaction with Cysteine: 6.4 ± 1.7%
[5]
  percentage of insoluble substances produced after reaction with Sodium sulfite: 5.5 ± 0.8%
[6]
  percentage of insoluble substances produced after reaction with Sodium sulfate: 4.6 ± 0.5%
[7]
  percentage of insoluble substances produced after reaction with Thiosodium sulfate: 5.6 ± 0.3%
[8]
  percentage of insoluble substances produced after reaction with NO: 4.7 ± 0.7%
[9]
  percentage of insoluble substances produced in Buffer: 4.6 ± 0.5%

## carrageenan
Hydrogen sulfide in paw
  concentration of hydrogen sulfide in the paws: 43.7 ± 3.5 µM
